What all share (experiment): Inhibition Assay
Test [1] addresses T1, Thymidylate synthase (Lacticaseibacillus casei, UniProt P00469).
T1 sequence (P00469 whole entry): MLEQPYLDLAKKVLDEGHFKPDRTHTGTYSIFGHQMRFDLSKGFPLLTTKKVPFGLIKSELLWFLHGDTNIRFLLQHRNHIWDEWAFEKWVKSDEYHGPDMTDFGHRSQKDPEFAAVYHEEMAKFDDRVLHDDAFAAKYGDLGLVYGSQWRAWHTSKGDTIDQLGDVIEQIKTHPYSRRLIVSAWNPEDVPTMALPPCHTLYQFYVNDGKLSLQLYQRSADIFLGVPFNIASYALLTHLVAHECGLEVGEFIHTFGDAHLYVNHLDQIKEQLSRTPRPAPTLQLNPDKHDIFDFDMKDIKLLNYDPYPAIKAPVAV
The text has this:
(§1) Affinity assay of specificities of thymidylate synthase (TS)inhibitors

In test [2] the target is Thymidylate synthase (Homo sapiens, UniProt P04818).
Chain of Thymidylate synthase (Homo sapiens, UniProt P04818) (P04818 whole entry): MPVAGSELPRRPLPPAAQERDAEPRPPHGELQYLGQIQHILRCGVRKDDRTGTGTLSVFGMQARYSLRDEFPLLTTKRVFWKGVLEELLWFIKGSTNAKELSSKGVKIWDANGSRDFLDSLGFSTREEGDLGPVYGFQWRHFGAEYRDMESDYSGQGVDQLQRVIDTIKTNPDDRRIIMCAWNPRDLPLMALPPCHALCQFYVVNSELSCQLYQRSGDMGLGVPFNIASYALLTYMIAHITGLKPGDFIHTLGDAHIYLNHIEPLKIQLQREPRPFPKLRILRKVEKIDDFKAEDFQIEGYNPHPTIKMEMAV
Description: as §1

Test [3] deals with Thymidylate synthase (Escherichia coli (strain K12), UniProt P0A884).
Chain of Thymidylate synthase (Escherichia coli (strain K12), UniProt P0A884) (P0A884 whole entry): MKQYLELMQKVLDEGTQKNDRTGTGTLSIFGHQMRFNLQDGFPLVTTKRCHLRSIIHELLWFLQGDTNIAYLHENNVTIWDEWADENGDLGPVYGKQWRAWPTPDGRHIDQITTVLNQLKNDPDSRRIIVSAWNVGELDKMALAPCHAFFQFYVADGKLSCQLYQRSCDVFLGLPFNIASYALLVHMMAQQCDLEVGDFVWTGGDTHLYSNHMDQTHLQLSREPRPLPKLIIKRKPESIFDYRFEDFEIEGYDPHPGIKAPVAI
Description: as §1

pIC50: −log10 of the molar value.

On Thymidylate synthase [1], `CCCCN(CCCC)c1cccc2c(S(=O)(=O)Oc3ccc(CC(N)C(=O)O)cc3)cccc12` (centres undefined) had a negative-log IC50 (pIC50) of 4.28.
On to `CN(C)c1cccc2c(S(=O)(=O)Oc3ccc(CC(N)C(=O)O)cc3)cccc12` [Dansyl derivatives 1A, (S) isomer], for which the negative-log IC50 (pIC50) against Thymidylate synthase [2] is 3.11; at Thymidylate synthase [3] it was 2.93.
On to `NC(Cc1ccc(OC(=O)c2ccc3ccccc3c2)cc1)C(=O)O` (centres undefined) [2-naphthylcarbonyl], for which the pIC50 at Thymidylate synthase [1] was 4.15.
On to `NC(Cc1ccc(OS(=O)(=O)c2ccc3ccccc3c2)cc1)C(=O)O` (centres undefined) [2-naphthylsulfonyl], for which the negative logarithm of the IC50 (pIC50) at Thymidylate synthase [1] was 5.33.
For the molecule `CN(C)c1cccc2c(S(=O)(=O)NN)cccc12` [5-(dimethylamino)naphthalene-1-sulfonohydrazide], the pIC50 against Thymidylate synthase [1] is 3.34; on Thymidylate synthase [2], 4.44; on Thymidylate synthase [3], 2.95.
In turn, `CN(C)c1ccc(/N=N\c2ccc(S(=O)(=O)Oc3ccc(CC(N)C(=O)O)cc3)cc2)cc1` (centres undefined) [4'-(dimethylamino)azobenzene-4-sulfonyl] showed a pIC50 at Thymidylate synthase [1] of less than 4.00.

These data come from BindingDB's records for doi:10.1016/S1074-5521(01)00067-9 (University of California San Francisco, 2001).
